# Reference: patent US6174921A, “Antitumor compositions and methods of treatment” (priority 1999, dated 2001)
# Assays:
# CCRF-CEM cells = assay: In vitro growth inhibition / cytotoxicity against CCRF-CEM human leukemia cells; assay type: cell-based; details: 72 hours of incubation, read-out: IC50 (concentration required for 50% inhibition of growth)
# Protocol: The in vitro data were obtained using CCRF-CEM cells, a human leukemia cell line. Foley et al., Cancer, 18:522 (1965). These cells were grown using standard techniques. See, e.g., G. B. Grindey, et al., Journal of Molecular Pharmacoloy, 16:601 (1979). Dose-response curves were generated for various compounds to determine the concentration required for 50% inhibition of growth (IC50). Cluster plates were prepared in duplicate with the compound at various concentrations. Test compounds were dissolved initially in DMSO at a concentration of 4 mg/ml and further diluted with solvent to the desired concentration. Cells in Roswell Park Memorial Institute 1640 media supplemented with 10% dialyzed fetal bovine serum, and 25 mM HEPES buffer were added to the well at a final concentration of 4.8×10^4 cells/well in a total volume of 2.0 ml. After 72 hours of incubation (95% air, 5% CO2), cell numbers were determined on a ZBI Coulter counter. Cell number for indicated controls at the end of incubation was usually (4-6)×10^5 cells/well. Cell viability was also measured by staining with 3-[4,5-dimethylthiazol-2-yl]-2,5-diphenyl-tetrazolium bromide (MTT) using standard techniques. R. I. Freshney, Culture of Animal Cells: A Manual of Basic Technique, 253-254 (2d ed. 1987).
# Column 1 refers to the example number of the compound tested; Column 2 depicts the in vitro cytoxicity against CCRF-CEM cells by relating the concentration of the test compound required for 50% inhibition of growth (IC50) of the cells in the well.
# 6C3HED lymphosarcoma = assay: In vivo antitumor activity in C3H mice bearing 6C3HED lymphosarcoma allograft (Gardner lymphosarcoma), oral
# From the text: A second tumor model employed C3H mice bearing the widely used allograft 6C3HED lymphosarcoma, also known as the Gardner lymphosarcoma (GLS). The 6C3HED lymphosarcoma was obtained from the Division of Cancer Treatment, National Cancer Institute, Tumor Bank, maintained at E. G. and G. Mason Research (Worcester, Mass.).
# First passage tumors were stored in liquid nitrogen, using standard techniques. The transplanted tumor was reestablished from the Tumor Bank every six months or as needed. The tumor was maintained by serial passage twice weekly in the host mice.
# In the procedures utilized here, the tumor was removed from passage animals and minced into 1- to 3-mm cubic fragments using sterile techniques. Tumor pieces were checked for sterility using both Antibiotic Medium 1 and Brain Heart Infusion (Difco, Detroit, Mich.). The xenograft tumor pieces were implanted into the recipient CD1 Nu/Nu mice subcutaneously in an axillary site by trochar. The allograft 6C3HED tumor pieces were implanted into the recipient C3H mice in an analogous fashion.
# Drug therapy on the appropriate schedule was initiated seven days after tumor implantation for the HXGC3 xenograft and the day after tumor implantation for the 6C3HED allograft. The compound being tested was mixed with 2.5% Emulphor EL620 from GAF Corporation (1:40 dilution in 0.9% saline). The total dosage volume for each administration was 0.5 ml. All animals were weighed at the beginning and end of administration of the subject compounds. Food and water were provided ad libitum.
# Each control group and each dosage level of the treated groups consisted of 9 or 10 mice selected at random from the pool of implanted animals. The formulations were administered orally by gavage with the use of an 18-gauge needle. Compounds were dosed daily for 10 days for the studies using the human tumor xenografts and 8 days for the studies using the allograft.
# The xenograft tumor was measured five days after treatment ended with two dimensional measurements (width and length) of the tumor taken using digital electronic calipers interfaced to a microcomputer. J. F. Worzalla, et al., Investigational New Drugs, 8:241-251 (1990). The allograft was measured in a like manner the day after the dosing schedule ended. Tumor weights were calculated from these measurements using the following formula: [formula]
# At least one control group of an equal number of mice was treated with the same volume of 2.5% Emulphor only. The percent inhibition is determined by subtracting the ratio of the mean tumor size of the test group relative to the control group from one and multiplying the result by 100.
# The results of several experiments in mice bearing the HXGC3 human colon adenocarcinoma and the 6C3HED lymphosarcoma when the Formula I compounds were administered orally are provided in Table II. In the table, Column 1 refers to the example number of the compound tested; Column 2 describes the particular human tumor xenograft or mouse allograft being studied; Column 3 gives the dosage level of the compound of Formula I in milligrams per kilogram of body weight; Column 4 describes the percent inhibition of tumor growth; and Column 5 tallies the number of mice which died during the course of the experiment relative to the total number of animals in the group.
# [1] = test system: HXGC3 human colon adenocarcinoma xenograft; assay: In vivo antitumor activity in CD1 Nu/Nu mice bearing HXGC3 human colon adenocarcinoma xenograft, oral; details: daily for 10 days
# Protocol: One of the tumor models used for showing the anti-neoplastic activity of the sulfonylureas of this invention was the human colon xenograft HXGC3. […] This tumor was obtained from St. Jude's Children's Research Hospital and has been widely used as a human tumor model.
# The xenograft tumor was measured five days after treatment ended with two dimensional measurements (width and length) of the tumor taken using digital electronic calipers interfaced to a microcomputer. […] Tumor weights were calculated from these measurements using the following formula: [formula]
# [2] = 6C3HED, 1200 mg/kg, oral, daily for 8 days, second entry of Example 1
smiles,measurement,setting,value
"C=Cc1ccc(S(=O)(=O)NC(=O)Nc2ccc(Cl)cc2)cc1 [Example 1, N-[[(4-chlorophenyl)amino]carbonyl]-4-(ethenyl)benzenesulfonamide]",IC50,CCRF-CEM cells,19.8 µg/mL
same,Toxic/Total (mice which died / total in group),"6C3HED lymphosarcoma; 6C3HED, 37.5 mg/kg, oral, daily for 8 days, second entry of Example 1",0/10
same,Toxic/Total (mice which died / total in group),"6C3HED lymphosarcoma; 6C3HED, 75 mg/kg, oral, daily for 8 days, second entry of Example 1",0/10
same,Toxic/Total (mice which died / total in group),"6C3HED lymphosarcoma; 6C3HED, 150 mg/kg, oral, daily for 8 days, first entry of Example 1",0/10
same,Toxic/Total (mice which died / total in group),"6C3HED lymphosarcoma; 6C3HED, 150 mg/kg, oral, daily for 8 days, second entry of Example 1",0/10
same,Toxic/Total (mice which died / total in group),"6C3HED lymphosarcoma; 6C3HED, 300 mg/kg, oral, daily for 8 days, first entry of Example 1",1/10
same,Toxic/Total (mice which died / total in group),"6C3HED lymphosarcoma; 6C3HED, 300 mg/kg, oral, daily for 8 days, second entry of Example 1",1/10
same,Toxic/Total (mice which died / total in group),"6C3HED lymphosarcoma; 6C3HED, 600 mg/kg, oral, daily for 8 days, second entry of Example 1",2/10
same,Percent Inhibition of tumor growth,6C3HED lymphosarcoma; [2],Toxic
same,Toxic/Total (mice which died / total in group),6C3HED lymphosarcoma; [2],10/10
same,Percent Inhibition of tumor growth,"6C3HED lymphosarcoma; po, 37.5 mg/kg, 192 h",34%
same,Percent Inhibition of tumor growth,"6C3HED lymphosarcoma; po, 75 mg/kg, 192 h",66%
same,Percent Inhibition of tumor growth,"6C3HED lymphosarcoma; po, 600 mg/kg, 192 h",100%
"C=Cc1ccc(S(=O)(=O)NC(=O)Nc2ccc(Cl)c(Cl)c2)cc1 [Example 2, N-[[(3,4-dichlorophenyl)amino]carbonyl]-4-(ethenyl)benzenesulfonamide]",IC50,CCRF-CEM cells,9.3 µg/mL
same,Percent Inhibition of tumor growth,[1]; 150 mg/kg,93%
same,Toxic/Total (mice which died / total in group),[1]; 150 mg/kg,0/7
same,Percent Inhibition of tumor growth,[1]; 300 mg/kg,97%
same,Toxic/Total (mice which died / total in group),[1]; 300 mg/kg,1/7
"C=Cc1cccc(S(=O)(=O)NC(=O)Nc2ccc(Cl)cc2)c1 [Example 3, N-[[(4-chlorophenyl)amino]carbonyl]-3-(ethenyl)benzenesulfonamide]",IC50,CCRF-CEM cells,14.4 µg/mL
same,Toxic/Total (mice which died / total in group),"6C3HED lymphosarcoma; 6C3HED, 150 mg/kg, oral, daily for 8 days, entry of Example 3",0/10
same,Toxic/Total (mice which died / total in group),"6C3HED lymphosarcoma; 6C3HED, 300 mg/kg, oral, daily for 8 days, entry of Example 3",0/10
same,Percent Inhibition of tumor growth,"6C3HED lymphosarcoma; po, 150 mg/kg, 192 h",60%
same,Percent Inhibition of tumor growth,"6C3HED lymphosarcoma; po, 300 mg/kg, 192 h",83%
